Reference: US9931401B2, “Combination comprising anti-fibroblast growth factor receptor 2 (FGFR2) antibody and a tyrosine kinase inhibitor” (Daiichi Sankyo Company, Limited, priority 2013, dated 2018)
Entries after “also recorded” stand apart in the source; their conditions may differ.

How the values were obtained:
[1] = system: human stomach cancer cell line SNU-16; experiment: In vivo combined use with AZD4547, SNU-16-transplanted nude mice; set-up: species or system nude mouse
Method: A human stomach cancer cell line SNU-16 (purchased from ATCC) was adjusted to 5×10^7 cells/mL with a 1:1 mixed solution of PBS and Matrigel (purchased from Nippon Becton Dickinson Company, Ltd.), and 0.1 mL of the cell suspension was subcutaneously transplanted to the axillary region of each nude mouse (CAnN.Cg-Foxnl^nu/CrlCrlj, female, 5 to 6 weeks old, purchased from Charles River Laboratories Japan Inc.). […] The major axis (mm) and minor axis (mm) of the tumor were measured over time using an electronic digital caliper (manufactured by Mitsutoyo Corp.). The tumor volume was calculated according to the following expression: Tumor volume (mm^3)=½×[Major axis of the tumor]×[Minor axis of the tumor]×[Minor axis of the tumor]
The antitumor effect was evaluated on the basis of the percentage of tumor growth inhibition (TGI %) at 21 days after transplantation (final assay day) according to the following expression: TGI (%)=(1−A/B)×100

SNU-16 cells = experiment: Amount of antigen FGFR2 on cell surface of SNU-16 treated with low-molecular compound (QIFIKIT); format: cell-based, human; settings: 100 to 1000 nM; compared with untreated or DMSO-treated SNU-16 cells
Method: This operation was repeated twice. […] The data was analyzed using Flowjo (manufactured by Tree Star Inc.).

[2] = system: human stomach cancer cell line SNU-16; experiment: In vivo combined use with Ki23057, SNU-16-transplanted nude mice; set-up: species or system nude mouse; settings: in combination with hFR2-14_H19/L1 20 mg/kg
Method: A human stomach cancer cell line SNU-16 (purchased from ATCC) was adjusted to 5×10^7 cells/mL with a 1:1 mixed solution of PBS and Matrigel (purchased from Nippon Becton Dickinson Company, Ltd.), and 0.1 mL of the cell suspension was subcutaneously transplanted to the axillary region of each nude mouse (CAnN.Cg-Foxnl^nu/CrlCrlj, female, 5 to 6 weeks old, purchased from Charles River Laboratories Japan Inc.). […] Administration of hFR2-14_H19/L1 was carried out 8, 11, 15, and 18 days after transplantation, and administration of Ki23057 was carried out 8, 9, 10, 11, 15, 16, 17, and 18 days after transplantation. The major axis (mm) and minor axis (mm) of the tumor were measured over time using an electronic digital caliper (manufactured by Mitsutoyo Corp.). The tumor volume was calculated according to the following expression: Tumor volume (mm^3)=½×[Major axis of the tumor]×[Minor axis of the tumor]×[Minor axis of the tumor]
The antitumor effect was evaluated on the basis of the percentage of tumor growth inhibition (TGI %) at 21 days after transplantation (3 days after final administration) and 32 days after transplantation (final assay day) according to the following expression: TGI (%)=(1−A/B)×100

| SMILES | number of CR individuals among 9 mice at 21 days after transplantation ([1]; administered alone, hFR2-14_H19/L1 20 mg/kg) | TGI at 21 days after transplantation (final assay day) ([1]; hFR2-14_H19/L1 20 mg/kg intraperitoneally, AZD4547 3 mg/kg orally) [%] | number of the antigen FGFR2 on cell surface (SNU-16 cells) | TGI at 21 days after transplantation ([2]; Ki23057 5 mg/kg orally) [%] | TGI at 32 days after transplantation (final assay day) ([2]; Ki23057 5 mg/kg orally) [%] | TGI at 21 days after transplantation ([2]; Ki23057 20 mg/kg orally) [%] | TGI at 32 days after transplantation (final assay day) ([2]; Ki23057 20 mg/kg orally) [%] |
| --- | --- | --- | --- | --- | --- | --- | --- |
| COc1cc(CCc2cc(NC(=O)c3ccc(N4C[C@@H](C)N[C@@H](C)C4)cc3)n[nH]2)cc(OC)c1 [AZD4547, N-(5-(3,5-dimethoxyphenethyl)-1H-pyrazol-3-yl)-4-((3S,5R)-3,5-dimethylpiperazin-1-yl)benzamide, reference compound] | 0 | 24 | – | – | – | – | – |
| COc1cc2c(Oc3ccc(Nc4ccc(C(C)(C)C)cc4)cc3)ccnc2cc1OCCNCCO [Ki23057, 2-((2-((4-(4-((4-(tert-butyl)phenyl)amino)phenoxy)-6-methoxyquinolin-7-yl)oxy)ethyl)amino)ethanol] | – | – | elevated; also recorded: increased | 7 | 1 | 29 | −14 |
